Experiments:
Format in all cases: in vivo
[1] = test system: ducksalad (Heteranthera limosa); experiment: Test B flooded paddy test plant response
Outline: (§1)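 Rice, umbrella sedge, ducksalad and barnyardgrass at 2-leaf stage; pots flooded to 3 cm, compounds applied into paddy water, depth held throughout. Greenhouse 13 to 15 days, then visual rating vs untreated controls on 0–100 scale (0 no effect, 100 complete control); dash means no test result.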

[2] = test system: umbrella sedge (Cyperus difformis); experiment: Test B flooded paddy test plant response
Outline: as §1

[3] = test system: wild mustard (Sinapis arvensis); experiment: Test C pre-/postemergence plant response
Excerpt: (§2) Seeds of plant species selected from annual bluegrass (Poa annua), blackgrass (Alopecurus myosuroides), canola (Brassica rapa), downy bromegrass (Bromus tectorum), green foxtail (Setaria viridis), Italian ryegrass (Lolium multiflorum), canarygrass (Phalaris minor), pigweed (Amaranthus retroflexus), spring barley (Hordeum vulgare), spring wheat (Triticum aestivum), wild mustard (Sinapis arvensis), wild oat (Avena fatua), windgrass (Apera spica-venti), winter barley (Hordeum vulgare), and winter wheat (Triticum aestivum) were planted and treated preemergence with test chemicals formulated in a non-phytotoxic solvent mixture which included a surfactant. At the same time, plants selected from these crop and weed species were treated with postemergence applications of some of the test chemicals formulated in the same manner. Plants ranged in height from 2 to 18 cm (1- to 4-leaf stage) for postemergence treatments.
(§3) Treated plants and controls were maintained in a controlled growth environment for 15 to 25 days after which time all species were compared to controls and visually evaluated. Plant response ratings, summarized in Table C, are based on a scale of 0 to 100 where 0 is no effect and 100 is complete control. A dash (-) response means no test result.

[4] = test system: winter wheat (Triticum aestivum); experiment: Test C pre-/postemergence plant response
Excerpt: as §2, §3

[5] = test system: windgrass (Apera spica-venti); experiment: Test C pre-/postemergence plant response
Excerpt: as §2, §3

[6] = test system: spring barley (Hordeum vulgare); experiment: Test C pre-/postemergence plant response
Excerpt: as §2, §3

[7] = test system: blackgrass (Alopecurus myosuroides); experiment: Test C pre-/postemergence plant response
Excerpt: as §2, §3

[8] = test system: downy bromegrass (Bromus tectorum); experiment: Test C pre-/postemergence plant response
Excerpt: as §2, §3

[9] = test system: canarygrass (Phalaris minor); experiment: Test C pre-/postemergence plant response; conditions: Preemergence
Excerpt: as §2, §3

[10] = test system: annual bluegrass (Poa annua); experiment: Test C pre-/postemergence plant response
Excerpt: as §2, §3

wild oat (Avena fatua) = experiment: Test C pre-/postemergence plant response
Excerpt: as §2, §3

[11] = test system: pigweed (Amaranthus retroflexus); experiment: Test C pre-/postemergence plant response
Excerpt: as §2, §3

[12] = test system: green foxtail (Setaria viridis); experiment: Test C pre-/postemergence plant response
Excerpt: as §2, §3

[13] = test system: winter barley (Hordeum vulgare); experiment: Test C pre-/postemergence plant response
Excerpt: as §2, §3

[14] = test system: spring wheat (Triticum aestivum); experiment: Test C pre-/postemergence plant response
Excerpt: as §2, §3

[15] = test system: Italian ryegrass (Lolium multiflorum); experiment: Test C pre-/postemergence plant response
Excerpt: as §2, §3

[16] = Flood (flooded paddy test), 62 g ai/ha, scale 0 to 100, 0 no effect, 100 complete control
[17] = Flood (flooded paddy test), 125 g ai/ha, scale 0 to 100, 0 no effect, 100 complete control
[18] = Flood (flooded paddy test), 250 g ai/ha, scale 0 to 100, 0 no effect, 100 complete control
[19] = Flood, 31 g ai/ha, scale 0 to 100
[20] = Postemergence, 8 g ai/ha, scale 0 to 100, 0 no effect, 100 complete control
[21] = Postemergence, 16 g ai/ha, scale 0 to 100, 0 no effect, 100 complete control
[22] = Postemergence, 31 g ai/ha, scale 0 to 100, 0 no effect, 100 complete control
[23] = Postemergence, 62 g ai/ha, scale 0 to 100, 0 no effect, 100 complete control
[24] = Preemergence, 8 g ai/ha, scale 0 to 100 (0 no effect, 100 complete control)
[25] = Preemergence, 16 g ai/ha, scale 0 to 100 (0 no effect, 100 complete control)
[26] = Preemergence, 31 g ai/ha, scale 0 to 100 (0 no effect, 100 complete control)
[27] = Preemergence, 62 g ai/ha, scale 0 to 100, 0 no effect, 100 complete control

In the case of `CCc1cc(-c2ccc(C(F)(F)F)cc2)nn1-c1c(OS(C)(=O)=O)cnn(C)c1=O` [Compound 19], the “Plant response rating, Ducksalad” value [1, 16] is reported as 0, the “Plant response rating, Ducksalad” value [1, 17] is reported as 0 and the “Plant response rating, Ducksalad” value [1, 18] is reported as 25. The “Plant response rating, Ducksalad” value [1, 19] was 0, the “Plant response rating, Sedge, Umbrella” value [2, 16] was 30 and the “Plant response rating, Sedge, Umbrella” value [2, 17] was 60. The “Plant response rating, Sedge, Umbrella” value [2, 18] was 70, the “Plant response rating, Sedge, Umbrella” value [2, 19] was 0 and the “Plant response rating, Mustard, Wild” value [3, 20] was 0. The “Plant response rating, Mustard, Wild” value [3, 21] was 20, the “Plant response rating, Mustard, Wild” value [3, 22] was 20 and the “Plant response rating, Mustard, Wild” value [3, 23] was 20. The “Plant response rating, Mustard, Wild” value [3, 24] was 0, the “Plant response rating, Mustard, Wild” value [3, 25] was 0 and the “Plant response rating, Mustard, Wild” value [3, 26] was 0. The “Plant response rating, Mustard, Wild” value [3, 27] was 0, the “Plant response rating, Wheat, Winter” value [4, 20] was 20 and the “Plant response rating, Wheat, Winter” value [4, 21] was 80. The “Plant response rating, Wheat, Winter” value [4, 22] was 90, the “Plant response rating, Wheat, Winter” value [4, 23] was 100 and the “Plant response rating, Wheat, Winter” value [4, 24] was 10. For the same compound, the “Plant response rating, Wheat, Winter” value [4, 25] was 50, the “Plant response rating, Wheat, Winter” value [4, 26] was 60 and the “Plant response rating, Wheat, Winter” value [4, 27] was 90. For the same compound, the “Plant response rating, Windgrass” value [5, 20] was 80, the “Plant response rating, Windgrass” value [5, 21] was 100 and the “Plant response rating, Windgrass” value [5, 22] was 100. The “Plant response rating, Windgrass” value [5, 23] was 100, the “Plant response rating, Windgrass” value [5, 24] was 100 and the “Plant response rating, Windgrass” value [5, 25] was 100. The “Plant response rating, Windgrass” value [5, 26] was 100, the “Plant response rating, Windgrass” value [5, 27] was 100 and the “Plant response rating, Barley, Spring” value [6, 20] was 20. For the same compound, the “Plant response rating, Barley, Spring” value [6, 21] was 90, the “Plant response rating, Barley, Spring” value [6, 22] was 100 and the “Plant response rating, Barley, Spring” value [6, 23] was 100. The “Plant response rating, Barley, Spring” value [6, 24] was 50, the “Plant response rating, Barley, Spring” value [6, 25] was 65 and the “Plant response rating, Barley, Spring” value [6, 26] was 65. For the same compound, the “Plant response rating, Barley, Spring” value [6, 27] was 80, the “Plant response rating, Blackgrass” value [7, 20] was 75 and the “Plant response rating, Blackgrass” value [7, 21] was 100. The “Plant response rating, Blackgrass” value [7, 22] was 100, the “Plant response rating, Blackgrass” value [7, 23] was 100 and the “Plant response rating, Blackgrass” value [7, 24] was 80. For the same compound, the “Plant response rating, Blackgrass” value [7, 25] was 100, the “Plant response rating, Blackgrass” value [7, 26] was 100 and the “Plant response rating, Blackgrass” value [7, 27] was 100. The “Plant response rating, Bromegrass, Downy” value [8, 20] was 40, the “Plant response rating, Bromegrass, Downy” value [8, 21] was 65 and the “Plant response rating, Bromegrass, Downy” value [8, 22] was 98. For the same compound, the “Plant response rating, Bromegrass, Downy” value [8, 23] was 100, the “Plant response rating, Bromegrass, Downy” value [8, 24] was 30 and the “Plant response rating, Bromegrass, Downy” value [8, 25] was 65. The “Plant response rating, Bromegrass, Downy” value [8, 26] was 75, the “Plant response rating, Bromegrass, Downy” value [8, 27] was 95 and the “Plant response rating, Canarygrass” value ([9]; 8 g ai/ha, scale 0 to 100 (0 no effect, 100 complete control)) was 65. For the same compound, the “Plant response rating, Canarygrass” value ([9]; 16 g ai/ha, scale 0 to 100 (0 no effect, 100 complete control)) was 90, the “Plant response rating, Canarygrass” value ([9]; 31 g ai/ha, scale 0 to 100 (0 no effect, 100 complete control)) was 98 and the “Plant response rating, Canarygrass” value ([9]; 62 g ai/ha, scale 0 to 100, 0 no effect, 100 complete control) was 100. The “Plant response rating, Bluegrass” value [10, 20] was 0, the “Plant response rating, Bluegrass” value [10, 21] was 0 and the “Plant response rating, Bluegrass” value [10, 22] was 25. For the same compound, the “Plant response rating, Bluegrass” value [10, 23] was 35, the “Plant response rating, Bluegrass” value [10, 25] was 0 and the “Plant response rating, Oat, Wild” value (wild oat (Avena fatua); [20]) was 100. For the same compound, the “Plant response rating, Oat, Wild” value (wild oat (Avena fatua); [21]) was 100, the “Plant response rating, Oat, Wild” value (wild oat (Avena fatua); [22]) was 100 and the “Plant response rating, Oat, Wild” value (wild oat (Avena fatua); [23]) was 100. For the same compound, the “Plant response rating, Oat, Wild” value (wild oat (Avena fatua); [24]) was 65, the “Plant response rating, Oat, Wild” value (wild oat (Avena fatua); [25]) was 65 and the “Plant response rating, Oat, Wild” value (wild oat (Avena fatua); [26]) was 80. For the same compound, the “Plant response rating, Oat, Wild” value (wild oat (Avena fatua); [27]) was 95, the “Plant response rating, Pigweed” value [11, 20] was 0 and the “Plant response rating, Pigweed” value [11, 21] was 0. The “Plant response rating, Pigweed” value [11, 22] was 0, the “Plant response rating, Pigweed” value [11, 23] was 0 and the “Plant response rating, Pigweed” value [11, 24] was 0. The “Plant response rating, Pigweed” value [11, 25] was 30, the “Plant response rating, Pigweed” value [11, 26] was 50 and the “Plant response rating, Pigweed” value [11, 27] was 75. For the same compound, the “Plant response rating, Foxtail, Green” value [12, 20] was 95, the “Plant response rating, Foxtail, Green” value [12, 21] was 100 and the “Plant response rating, Foxtail, Green” value [12, 22] was 100. The “Plant response rating, Foxtail, Green” value [12, 23] was 100, the “Plant response rating, Foxtail, Green” value [12, 24] was 20 and the “Plant response rating, Foxtail, Green” value [12, 25] was 100. For the same compound, the “Plant response rating, Foxtail, Green” value [12, 26] was 100, the “Plant response rating, Foxtail, Green” value [12, 27] was 100 and the “Plant response rating, Barley, Winter” value [13, 20] was 20. For the same compound, the “Plant response rating, Barley, Winter” value [13, 21] was 50, the “Plant response rating, Barley, Winter” value [13, 22] was 100 and the “Plant response rating, Barley, Winter” value [13, 23] was 100. For the same compound, the “Plant response rating, Barley, Winter” value [13, 24] was 20, the “Plant response rating, Barley, Winter” value [13, 25] was 40 and the “Plant response rating, Barley, Winter” value [13, 26] was 75. The “Plant response rating, Barley, Winter” value [13, 27] was 80, the “Plant response rating, Wheat, Spring” value [14, 20] was 70 and the “Plant response rating, Wheat, Spring” value [14, 21] was 80. For the same compound, the “Plant response rating, Wheat, Spring” value [14, 22] was 90, the “Plant response rating, Wheat, Spring” value [14, 23] was 100 and the “Plant response rating, Wheat, Spring” value [14, 24] was 0. The “Plant response rating, Wheat, Spring” value [14, 25] was 40, the “Plant response rating, Wheat, Spring” value [14, 26] was 60 and the “Plant response rating, Wheat, Spring” value [14, 27] was 75. The “Plant response rating, Ryegrass, Italian” value [15, 20] was 60, the “Plant response rating, Ryegrass, Italian” value [15, 21] was 100 and the “Plant response rating, Ryegrass, Italian” value [15, 22] was 100. The “Plant response rating, Ryegrass, Italian” value [15, 23] was 100, the “Plant response rating, Ryegrass, Italian” value [15, 24] was 80 and the “Plant response rating, Ryegrass, Italian” value [15, 25] was 100. The “Plant response rating, Ryegrass, Italian” value [15, 26] was 100 and the “Plant response rating, Ryegrass, Italian” value [15, 27] was 100.

Reference: patent US20100267561A1, “HERBICIDAL PYRIDAZINONE DERIVATIVES” (priority 2007, published 2010)
